Measured values taken from patent US5393742A, “Preparation for treating renal disease” (MECT Corporation, priority 1990, dated 1995).
Like-named read-outs stand apart in the source and are kept apart here.

Experiments:
[1] = system: Puromycin aminonucleoside (PAN) induced nephritis; assay type: in vivo, Male Sprague-Dawley (SD) rats; conditions: for Kidney Moist Weight / Weight Gain Rate: 14 days after PAN
Procedure: Effect on Puromycin aminonucleoside (PAN) induced nephritis, i.e. PAN induced nephrosis or nephrotic syndrome:
Male Sprague-Dawley (SD) rats weighing 160-180 g were used.
As the nephritis, i.e. nephrosis or nephrotic syndrome, causing substance, PAN (made by Sigma Co., Ltd.) was used. As the test compound, sodium N-acetylneuraminate (made by MECT Corporation) was used.
PAN was intraperitoneally administered in an amount of 80 mg per 1 kg of body weight to rats to cause nephritis, i.e. nephrosis or nephrotic syndrome. Then, the test compound (Groups I, II or III) or physiological saline solution (Group IV) was intraperitoneally administered 3 times a day (morning, noon and evening) for 14 consecutive days immediately after treatment with PAN as follows. As a positive control, methylprednisolone was subcutaneously administered to rats of Group V once a day (noon) for 14 consecutive days immediately after treatment with PAN. Moreover, 3, 6, 9 and 13 days after treatment with PAN, 5 ml water was loaded, and the urine was collected for 6 hours. Fourteen days after treatment with PAN, autopsies were made, the kidneys were extirpated and their moist weights were measured.
Group I: 0.1 mg Sodium N-acetylneuraminate per 1 kg of body weight was administered.
Group II: 0.5 mg Sodium N-acetylneuraminate per 1 kg of body weight was administered.
Group III: 1.0 mg Sodium N-acetylneuraminate per 1 kg of body weight was administered.
Group IV: 2.5 ml Physiological saline solution per 1 kg of body weight was administered.
Group V: 2 mg Methylprednisolone per 1 kg of body weight was administered.
Group VI: Normal rats (no drug was given).
Regarding the results of therapeutic effect for treating renal disease (nephrotic syndrome) of the given NANA compound per Example 1 above, it will be appreciated that the test compound sodium N-acetylneuraminate (Groups I, II and III) was dissolved in physiological saline and intraperitoneally administered, compared to intraperitoneal administration of physiological saline alone (Group IV) and subcutaneous administration of methylprednisolone (Group V).

[2] = system: rat GEC; conditions: cited from earlier work
[3] = system: Male ddy mice; assay: Simplified acute toxicity test of N-acetylneuraminates in mice by intravenous injection; assay type: in vivo
Procedure: Simplified acute toxicity test:
A simplified acute toxicity test of N-acetylneuraminates in mice by intravenous injection was carried out as follows.
Lithium-, potassium-, barium- and magnesium- salts of N-acetylneuraminic acid were used (all were from MECT Corporation).
Body weights at the start of the test: 17.7-21.1 g
The number of animals at each level: 3 mice
(3) Room temperature: 23±1° C. - Humidity: 55±7%
The above-mentioned test compounds were dissolved in physiological saline solution to make a 0.2 ml solution per 20 g of body weight in a mouse as an injection fluid and injected into the tail vein. The doses were 500, 1,000 and 2,000 mg/kg.

[4] = 2.0 mg/kg s.c., once a day, positive control

## C[C@]12C=CC(=O)C=C1CC[C@@H]1[C@@H]2[C@@H](O)C[C@@]2(C)[C@H]1CC[C@]2(O)C(=O)CO [prednisolone, reference compound]
[1]; PAN rats, 14 days
  Effect on increase of kidney moist weight (in words): inhibits increase in kidney moist weight

## C[C@H]1C[C@@H]2[C@H]([C@@H](O)C[C@@]3(C)[C@H]2CC[C@]3(O)C(=O)CO)[C@@]2(C)C=CC(=O)C=C12 [Methylprednisolone, methylprednisolone, reference compound]
[1]; [4]
  Kidney Moist Weight: 0.43 ± 0.01 g/100 g
  Weight Gain Rate: 107.7 ± 1.6%
[1]; 3rd Day, 2.0 mg/kg s.c., once a day
  Urinary Protein Content: 22.3 ± 2.1 mg/24 hours
[1]; 6th Day, 2.0 mg/kg s.c., once a day
  Urinary Protein Content: 55.8 ± 11.4 mg/24 hours
[1]; 9th Day, 2.0 mg/kg s.c., once a day
  Urinary Protein Content: 68.7 ± 13.1 mg/24 hours
[1]; 13th Day, 2.0 mg/kg s.c., once a day
  Urinary Protein Content: 56.1 ± 12.5 mg/24 hours
[1]; PAN rats, 14 days
  Effect on weight gain (in words): greater inhibition of weight gain
[1]; PAN rats, 6th, 9th and 13th day
  Effect on increase in urinary protein content (in words): inhibits increase in urinary protein content
[1]; rat, in vivo
  Systemic side effect (in words): greater systemic side effect

## CN(C)c1ncnc2c1ncn2[C@@H]1O[C@H](CO)[C@@H](N)[C@H]1O [PAN, puromycin aminonucleoside]
[2]
  Effect on heparan sulfate proteoglycan (HSPG): reduces heparan sulfate proteoglycan (HSPG)

## CC(=O)N[C@H]1[C@H]([C@H](O)[C@H](O)CO)OC(O)(C(=O)[O-])C[C@@H]1O.[Na+] (stereo partly drawn)
[1]; 0.1 mg/kg i.p., 3 times a day
  Kidney Moist Weight: 0.47 ± 0.02 g/100 g
  Weight Gain Rate: 127.1 ± 2.0%
[1]; 0.5 mg/kg i.p., 3 times a day
  Kidney Moist Weight: 0.44 ± 0.02 g/100 g
  Weight Gain Rate: 128.4 ± 1.8%
[1]; 1.0 mg/kg i.p., 3 times a day
  Kidney Moist Weight: 0.42 ± 0.02 g/100 g
  Weight Gain Rate: 131.3 ± 1.9%
[1]; 3rd Day, 0.1 mg/kg i.p., 3 times a day
  Urinary Protein Content: 14.1 ± 1.1 mg/24 hours
[1]; 3rd Day, 0.5 mg/kg i.p., 3 times a day
  Urinary Protein Content: 11.3 ± 0.8 mg/24 hours
[1]; 3rd Day, 1.0 mg/kg i.p., 3 times a day
  Urinary Protein Content: 5.1 ± 0.4 mg/24 hours
[1]; 6th Day, 0.1 mg/kg i.p., 3 times a day
  Urinary Protein Content: 83.4 ± 8.6 mg/24 hours
[1]; 6th Day, 0.5 mg/kg i.p., 3 times a day
  Urinary Protein Content: 49.1 ± 13.6 mg/24 hours
[1]; 6th Day, 1.0 mg/kg i.p., 3 times a day
  Urinary Protein Content: 50.5 ± 10.7 mg/24 hours
[1]; 9th Day, 0.1 mg/kg i.p., 3 times a day
  Urinary Protein Content: 99.6 ± 14.2 mg/24 hours
[1]; 9th Day, 0.5 mg/kg i.p., 3 times a day
  Urinary Protein Content: 59.9 ± 14.7 mg/24 hours
[1]; 9th Day, 1.0 mg/kg i.p., 3 times a day
  Urinary Protein Content: 51.2 ± 15.6 mg/24 hours
[1]; 13th Day, 0.1 mg/kg i.p., 3 times a day
  Urinary Protein Content: 109.9 ± 12.9 mg/24 hours
[1]; 13th Day, 0.5 mg/kg i.p., 3 times a day
  Urinary Protein Content: 94.5 ± 30.4 mg/24 hours
[1]; 13th Day, 1.0 mg/kg i.p., 3 times a day
  Urinary Protein Content: 77.9 ± 17.9 mg/24 hours
[1]; PAN rats, weight gain as index of systemic effect
  Systemic side effect (in words): does not show such side effect
[1]; PAN-induced nephritis
  Effect on renal disease, nephrosis or nephrotic syndrome (in words): has a therapeutic effect on renal disease

## CC(=O)N[C@H]1[C@H]([C@H](O)[C@H](O)CO)OC(O)(C(=O)[O-])C[C@@H]1O.[Li+] (stereo partly drawn) [Lithium N-acetylneuraminate]
[3]; 500 mg/kg i.v., 1 hrs
  The number of deaths per day course: 0
[3]; 500 mg/kg i.v., 3 hrs
  The number of deaths per day course: 0
[3]; 500 mg/kg i.v., 6 hrs
  The number of deaths per day course: 0
[3]; 500 mg/kg i.v., 24 hrs
  The number of deaths per day course: 0
[3]; 500 mg/kg i.v., 2 days
  The number of deaths per day course: 0
[3]; 500 mg/kg i.v., 3 days
  The number of deaths per day course: 0
[3]; 500 mg/kg i.v., 4 days
  The number of deaths per day course: 0
[3]; 500 mg/kg i.v., 5 days
  The number of deaths per day course: 0
[3]; 500 mg/kg i.v., 6 days
  The number of deaths per day course: 0
[3]; 500 mg/kg i.v., 7 days
  Final Lethality: 0/3
  The number of deaths per day course: 0
[3]; 1000 mg/kg i.v., 7 days
  Final Lethality: 0/3
  The number of deaths per day course: 0
[3]; 1000 mg/kg i.v., 1 hrs
  The number of deaths per day course: 0
[3]; 1000 mg/kg i.v., 3 hrs
  The number of deaths per day course: 0
[3]; 1000 mg/kg i.v., 6 hrs
  The number of deaths per day course: 0
[3]; 1000 mg/kg i.v., 24 hrs
  The number of deaths per day course: 0
[3]; 1000 mg/kg i.v., 2 days
  The number of deaths per day course: 0
[3]; 1000 mg/kg i.v., 3 days
  The number of deaths per day course: 0
[3]; 1000 mg/kg i.v., 4 days
  The number of deaths per day course: 0
[3]; 1000 mg/kg i.v., 5 days
  The number of deaths per day course: 0
[3]; 1000 mg/kg i.v., 6 days
  The number of deaths per day course: 0
[3]; 2000 mg/kg i.v., 7 days
  Final Lethality: 0/3
  The number of deaths per day course: 0
[3]; 2000 mg/kg i.v., 1 hrs
  The number of deaths per day course: 0
[3]; 2000 mg/kg i.v., 3 hrs
  The number of deaths per day course: 0
[3]; 2000 mg/kg i.v., 6 hrs
  The number of deaths per day course: 0
[3]; 2000 mg/kg i.v., 24 hrs
  The number of deaths per day course: 0
[3]; 2000 mg/kg i.v., 2 days
  The number of deaths per day course: 0
[3]; 2000 mg/kg i.v., 3 days
  The number of deaths per day course: 0
[3]; 2000 mg/kg i.v., 4 days
  The number of deaths per day course: 0
[3]; 2000 mg/kg i.v., 5 days
  The number of deaths per day course: 0
[3]; 2000 mg/kg i.v., 6 days
  The number of deaths per day course: 0

## CC(=O)N[C@H]1[C@H]([C@H](O)[C@H](O)CO)OC(O)(C(=O)O)C[C@@H]1O (stereo partly drawn) [Barium N-acetylneuraminate]
[3]; 500 mg/kg i.v.
  Deaths (in words): all 3 of the 3 mice
[3]; 500 mg/kg i.v., 1 hrs
  The number of deaths per day course: 3
[3]; 500 mg/kg i.v., 3 hrs
  The number of deaths per day course: 0
[3]; 500 mg/kg i.v., 6 hrs
  The number of deaths per day course: 0
[3]; 500 mg/kg i.v., 24 hrs
  The number of deaths per day course: 0
[3]; 500 mg/kg i.v., 2 days
  The number of deaths per day course: 0
[3]; 500 mg/kg i.v., 3 days
  The number of deaths per day course: 0
[3]; 500 mg/kg i.v., 4 days
  The number of deaths per day course: 0
[3]; 500 mg/kg i.v., 5 days
  The number of deaths per day course: 0
[3]; 500 mg/kg i.v., 6 days
  The number of deaths per day course: 0
[3]; 500 mg/kg i.v., 7 days
  Final Lethality: 3/3
  The number of deaths per day course: 0
[3]; 1000 mg/kg i.v., 7 days
  Final Lethality: 3/3
  The number of deaths per day course: 0
[3]; 1000 mg/kg i.v., 1 hrs
  The number of deaths per day course: 3
[3]; 1000 mg/kg i.v., 3 hrs
  The number of deaths per day course: 0
[3]; 1000 mg/kg i.v., 6 hrs
  The number of deaths per day course: 0
[3]; 1000 mg/kg i.v., 24 hrs
  The number of deaths per day course: 0
[3]; 1000 mg/kg i.v., 2 days
  The number of deaths per day course: 0
[3]; 1000 mg/kg i.v., 3 days
  The number of deaths per day course: 0
[3]; 1000 mg/kg i.v., 4 days
  The number of deaths per day course: 0
[3]; 1000 mg/kg i.v., 5 days
  The number of deaths per day course: 0
[3]; 1000 mg/kg i.v., 6 days
  The number of deaths per day course: 0
[3]; 2000 mg/kg i.v., 7 days
  Final Lethality: 3/3
  The number of deaths per day course: 0
[3]; 2000 mg/kg i.v., 1 hrs
  The number of deaths per day course: 3
[3]; 2000 mg/kg i.v., 3 hrs
  The number of deaths per day course: 0
[3]; 2000 mg/kg i.v., 6 hrs
  The number of deaths per day course: 0
[3]; 2000 mg/kg i.v., 24 hrs
  The number of deaths per day course: 0
[3]; 2000 mg/kg i.v., 2 days
  The number of deaths per day course: 0
[3]; 2000 mg/kg i.v., 3 days
  The number of deaths per day course: 0
[3]; 2000 mg/kg i.v., 4 days
  The number of deaths per day course: 0
[3]; 2000 mg/kg i.v., 5 days
  The number of deaths per day course: 0
[3]; 2000 mg/kg i.v., 6 days
  The number of deaths per day course: 0
[3]; 1,000 and 2,000 mg/kg i.v.
  Deaths (in words): all of the 3 mice died
